Measured values as given in patent US20120214743A1, “ITCH SUPPRESSANT” (University of Occupational and Environmental Health, Japan, priority 2009, published 2012).
Ends that are not written are not given here. * marks the point of attachment. SO3H = O=S(=O)(O)*

Legend:
[1] = system: normal human keratinocytes (NHEKs); test: DNA microarray of mRNA expression in stimulated normal human keratinocytes; assay type: cell-based; conditions: histamine 10 μM/mL, SLIGRL-NH2 100 nM
Experimental: For DNA microarray analysis, total RNA was extracted from NHEKs with the RNeasy Mini Kit (QIAGEN, Valencia, Calif.). Images obtained from a plate reader were analyzed with DNASIS Array (DNA CHIP RESERCH Inc., Hitachi Software Engineering, Tokyo, Japan), according to the manufacturer's instructions.
The values are log2 (mRNA expression level of each stimulated sample/expression level of the control).

ICR mice = test: SP-induced scratch behavior in ICR mice; assay type: in vivo, mouse; conditions: transdermal, 0.5 nmol/site in acetone/olive (3:1), tape-stripped skin, 3-4 minutes before SP 100 nmol/site intradermal; FIG. 3
Experimental: Since it is considered that external administration of CCK affects keratinocytes, at first, CCK2R agonist was administered transdermally (applying the solution prepared using acetone-olive (3:1)) to itch-related behavior model (ICR mice administered intradermally with SP (100 nmol)).
The hair was clipped over the rostral part of the murine back one or two days prior to experiment. Before behavioral recording, each mouse (4 animals per observation) was put into an acrylic cage (18×23×11 cm) for at least 1 hr for acclamation. An intradermal injection of SP (100 nmol in normal saline per site) induces scratching of the skin around the injected site by the hind paws in mice. CCKs were topically applied in the two ways, percutaenous application and intradermal injection. For percutaneous application, the shaved back skin was stripped with Scotch tape (3M) 6 times the day before the experiment. The mice were painted on the clipped back with 20 μL CCK (0.5 nmol/site) in acetone/olive (3:1) 3-4 minutes before SP injection (100 nmol/site). […] Immediately after treatment, the animals were put back into the same cage and their behavior was videotaped using a digital video camera for 40 minutes. The frequency of scratch toward the injected site by hind paws was counted for the first 20 minutes with the video.

CCK1R = test: Western blotting of CCK1R in ICR mouse keratinocytes incubated with SP; assay type: cell-based; conditions: SP 30 min to 24 hours, FIG. 2b
Experimental: (§1) Keratinocytes from ICR mice were stimulated with SP (10^−8 M) in six-well plates (Corning Glass Works) for 0.5-24 hours, harvested with a rubber policeman, and subjected to extraction with RIPA buffer (Wako, Osaka, Japan; Tris-HCl (pH8.0), 150 mm sodium chloride, 0.5% (wt/vol) sodium deoxycholate, 0.1% (wt/vol) SDS, and 1.0% (wt/vol) NP-40 substitute). Protein samples (20 μg) were separated by 8% SDS-polyacrylamide gel electrophoresis and electroblotted onto polyvinylidene difluoride membranes for 2 hours at 180 mA. After blocking with skim milk solution, the membranes were incubated with rabbit anti-mouse CCK1R (SC-33220; 1:1,000, Santa Cruz, Santa Cruz, Calif.) polyclonal antibodies,or CCK2R (SC-33221; 1:1,000, Santa Cruz) polyclonal antibodies, and the reaction was detected with horseradish peroxidase—conjugated goat anti-rabbit IgG (1:3,000, Bio-Rad, Hercules, Calif.). […] Bands were quantified by densitometry with the help of a CS Analyzer version 2.0 (ATTO, Tokyo, Japan). […]
(§2) To determine the effect of SP on keratinocytes, ICR mouse keratinocytes were incubated with SP for 30 min to 24 hours and the expression of CCK2R and CCK1R were analyzed by western blotting. CCK2R was detected with antibodies as 78 kDa band, and increased in keratinocytes exposed to SP for 5 or 6 hours (FIG. 2a). […]

CCK2R = test: Western blotting of CCK2R in ICR mouse keratinocytes incubated with SP; assay type: cell-based; conditions: exposed to SP for 5 or 6 hours, FIG. 2a
Experimental: as §1, §2

| Compound | ACTL7B mRNA, log2 (expression level of stimulated sample/expression level of the control) ([1]; NHEKs, Ca 0.6 mM, SP 10^−6 M) [log2] | ANKRD6 mRNA, log2 (expression level of stimulated sample/expression level of the control) ([1]; NHEKs, Ca 0.6 mM, SP 10^−6 M) [log2] | BUB1B mRNA, log2 (expression level of stimulated sample/expression level of the control) ([1]; NHEKs, Ca 0.6 mM, SP 10^−6 M) [log2] | CCK2R mRNA, log2 (expression level of stimulated sample/expression level of the control) ([1]; NHEKs, Ca 0.6 mM, SP 10^−6 M) [log2] | FCN3 mRNA, log2 (expression level of stimulated sample/expression level of the control) ([1]; NHEKs, Ca 0.6 mM, SP 10^−6 M) [log2] | MAP3K1 mRNA, log2 (expression level of stimulated sample/expression level of the control) ([1]; NHEKs, Ca 0.6 mM, SP 10^−6 M) [log2] | MMP9 mRNA, log2 (expression level of stimulated sample/expression level of the control) ([1]; NHEKs, Ca 0.6 mM, SP 10^−6 M) [log2] | PDE7B mRNA, log2 (expression level of stimulated sample/expression level of the control) ([1]; NHEKs, Ca 0.6 mM, SP 10^−6 M) [log2] | PTN mRNA, log2 (expression level of stimulated sample/expression level of the control) ([1]; NHEKs, Ca 0.6 mM, SP 10^−6 M) [log2] | SERPINI2 mRNA, log2 (expression level of stimulated sample/expression level of the control) ([1]; NHEKs, Ca 0.6 mM, SP 10^−6 M) [log2] | scratch behavior (frequency of scratch, first 20 minutes) (ICR mice) | also measured |
| --- | --- | --- | --- | --- | --- | --- | --- | --- | --- | --- | --- | --- |
| NCCc1c[nH]cn1 [histamine, Histamine] | 0.63 | 0.00 | −1.09 | −0.01 | −0.23 | 0.88 | 4.02 | 0.12 | −0.14 | 0.38 |  | CKM mRNA, log2 (expression level of stimulated sample/expression level of the control) ([1]; NHEKs, Ca 0.6 mM, SP 10^−6 M): 1.04 log2; F10 mRNA, log2 (expression level of stimulated sample/expression level of the control) ([1]; NHEKs, Ca 0.6 mM, SP 10^−6 M): 1.36 log2; NDRG4 mRNA, log2 (expression level of stimulated sample/expression level of the control) ([1]; NHEKs, Ca 0.6 mM, SP 10^−6 M): 1.59 log2; changes in the expression levels of CCK2R in stimulated NHEKs [1]: no significant changes |
| Asp-Tyr-Met-Gly-Trp-Met-Asp-Phe-NH2 (DYMGWMDF-NH2) [CCK8, cholecystokinin analogue in which the tyrosine is not sulfated] |  |  |  |  |  |  |  |  |  |  | no significant reduction |  |
| Met-Gly-Trp-Met-Asp-Phe-NH2 (MGWMDF-NH2) [CCK6, cholecystokinin analogue without the tyrosine] |  |  |  |  |  |  |  |  |  |  | no significant reduction |  |
| Ser-Leu-Ile-Gly-Arg-Leu-NH2 (SLIGRL-NH2) [synthetic agonist of PAR-2] | 0.84 | −0.17 | 0.52 | 0.06 | −0.62 | 0.64 | 0.11 | 1.00 | 0.12 | 0.72 |  | ARG1 mRNA, log2 (expression level of stimulated sample/expression level of the control) ([1]; NHEKs, Ca 0.6 mM, SP 10^−6 M): 0.71 log2; CYP17A1 mRNA, log2 (expression level of stimulated sample/expression level of the control) ([1]; NHEKs, Ca 0.6 mM, SP 10^−6 M): 0.92 log2; changes in the expression levels of CCK2R in stimulated NHEKs [1]: no significant changes |
| Substance P [SP] | 0.99 | 3.20 | 3.06 | 8.67 | 4.50 | 1.06 | 1.12 | 1.02 | 4.04 | 1.00 |  | CCK1R expression in keratinocytes exposed to SP (CCK1R): not augmented; AR mRNA, log2 (expression level of stimulated sample/expression level of the control) ([1]; NHEKs, Ca 0.6 mM, SP 10^−6 M): 0.99 log2; ARG1 mRNA, log2 (expression level of stimulated sample/expression level of the control) ([1]; NHEKs, Ca 0.6 mM, SP 10^−6 M): 1.69 log2; CKM mRNA, log2 (expression level of stimulated sample/expression level of the control) ([1]; NHEKs, Ca 0.6 mM, SP 10^−6 M): 1.72 log2; CLEC7A mRNA, log2 (expression level of stimulated sample/expression level of the control) ([1]; NHEKs, Ca 0.6 mM, SP 10^−6 M): 1.16 log2; CYP17A1 mRNA, log2 (expression level of stimulated sample/expression level of the control) ([1]; NHEKs, Ca 0.6 mM, SP 10^−6 M): 1.40 log2; F10 mRNA, log2 (expression level of stimulated sample/expression level of the control) ([1]; NHEKs, Ca 0.6 mM, SP 10^−6 M): 1.74 log2; ICAM1 mRNA, log2 (expression level of stimulated sample/expression level of the control) ([1]; NHEKs, Ca 0.6 mM, SP 10^−6 M): 1.16 log2; NDRG4 mRNA, log2 (expression level of stimulated sample/expression level of the control) ([1]; NHEKs, Ca 0.6 mM, SP 10^−6 M): 1.00 log2; RASSF7 mRNA, log2 (expression level of stimulated sample/expression level of the control) ([1]; NHEKs, Ca 0.6 mM, SP 10^−6 M): 1.82 log2; SV2B mRNA, log2 (expression level of stimulated sample/expression level of the control) ([1]; NHEKs, Ca 0.6 mM, SP 10^−6 M): 1.54 log2; CCK2R expression (78 kDa band) in keratinocytes exposed to SP (CCK2R): increased |
| Tyr(SO3H)-Met-Gly-Trp-Met-Asp-Phe-NH2 (Y(SO3H)MGWMDF-NH2; N-terminus assumed; SMILES CSCC[C@H](NC(=O)[C@H](Cc1c[nH]c2ccccc12)NC(=O)CNC(=O)[C@H](CCSC)NC(=O)[C@@H](N)Cc1ccc(OS(=O)(=O)O)cc1)C(=O)N[C@@H](CC(=O)O)C(=O)N[C@@H](Cc1ccccc1)C(N)=O) [CCK7S, natural type cholecystokinin, tyrosine at seventh position from C-terminal sulfated] |  |  |  |  |  |  |  |  |  |  | significant reduction |  |
| Tyr-Met-Gly-Trp-Met-Asp-Phe-NH2 (YMGWMDF-NH2) [CCK7, cholecystokinin analogue in which the tyrosine is not sulfated] |  |  |  |  |  |  |  |  |  |  | no significant reduction |  |
